IC50 data for 58 compounds are collected here from US7776862B2, “Pyridyl and phenyl substituted piperazine-piperidines with CXCR3 antagonist activity” (Schering Corporation, priority 2005, dated 2010).

Where only a bound is given, the exact number is not on record here.

This assay has as its target T1, human CXCR3 (N-delta 4) (Homo sapiens, UniProt P49682).
T1 construct: CD8 leader; Flag tag; expressed in transfected cells; membranes used
T1 sequence (P49682 5-368 limits assumed): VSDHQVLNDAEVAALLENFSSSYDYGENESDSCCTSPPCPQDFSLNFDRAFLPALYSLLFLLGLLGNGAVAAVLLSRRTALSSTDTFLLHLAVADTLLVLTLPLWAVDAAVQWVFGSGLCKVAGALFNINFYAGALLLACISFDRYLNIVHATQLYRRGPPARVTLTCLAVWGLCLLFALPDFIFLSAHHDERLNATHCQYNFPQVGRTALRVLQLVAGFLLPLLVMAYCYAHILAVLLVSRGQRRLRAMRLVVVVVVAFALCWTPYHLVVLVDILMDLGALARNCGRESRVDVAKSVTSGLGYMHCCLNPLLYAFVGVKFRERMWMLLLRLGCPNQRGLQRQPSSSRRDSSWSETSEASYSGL
In words: Human CXCR3 (N-delta 4) scintillation proximity assay (SPA), [125I] IP-10 binding. To be noted: IC50 rating; Ba/F3-hCXCR3 (N-delta 4) membranes, 25 pM [125I] IP-10. Summed up: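 IP-10 and compound titrations added together. The receptor source was SPA beads bearing membranes from Ba/F3 cells transfected with human CXCR3 (N-delta 4) carrying a CD8 leader and Flag tag.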
A general note: In a scintillation proximity assay essentially only radioactivity close to the scintillant gives light.
For `O=C(NCc1ccc(F)c(F)c1)c1cnc(N2CCN(C3CCN(Cc4ccc(Br)cc4)CC3)CC2)c(Br)c1` [compound 265], the half-inhibitory concentration (IC50) is less than 25 nM.

Regarding `C[C@H]1CN(c2ncc(C(=O)NCc3ccc(Cl)c(Cl)c3)cc2Cl)CCN1C1CCN(C(=O)c2ccc(C#N)cc2)CC1` [compound 266], the half-inhibitory concentration (IC50) is less than 25 nM.

The compound `O=C(NCc1ccc(F)c(F)c1)c1cnc(N2CCN(C3CCN(Cc4ccc(Br)cc4)CC3)CC2)c(Cl)c1` [compound 267] came in with a concentration for half-maximal inhibition (IC50) of 25 to 100 nM.

Consider `O=C(NCc1ccc(F)c(F)c1)c1cnc(N2CCN(C3CCN(Cc4ccc([N+](=O)[O-])cc4)CC3)CC2)c(Cl)c1` [compound 268], for which the IC50 lay in the range of 25 to 100 nM.

Compound `CCNC(=O)c1cnc(N2CCN(C3CCN(C(=O)c4ccc(C#N)cc4)CC3)[C@@H](CC)C2)c(Cl)c1` [compound 269] gave an IC50 of 25 to 100 nM.

Take `C[C@@H]1CN(c2ncc(C(=O)NCc3ccc(F)c(F)c3)cc2Cl)CCN1C1CCN(Cc2ccc(C#N)cc2)CC1` [compound 270]: the IC50 was in the range of 25 to 100 nM.

For the compound `CNC(=O)c1cnc(N2CCN(C3CCN([C@@H]4CCc5cc(Cl)ccc54)CC3)[C@@H](C)C2)c(Cl)c1` [compound 271], the half-inhibitory concentration (IC50) is 25 to 100 nM.

As for `O=C(NCc1ccc(F)cc1)c1cnc(N2CCN(C3CCN(Cc4ccc([N+](=O)[O-])cc4)CC3)CC2)c(Cl)c1` [compound 272], the half-maximal inhibitory concentration (IC50) lay within 25 to 100 nM.

As to `CC[C@H]1CN(c2ncc(C(=O)NN)cc2Cl)CCN1C1CCN(Cc2ccc(Cl)cc2F)CC1` [compound 273], the IC50 was 25 to 100 nM.

`CC[C@H]1CN(c2ncc(C(=O)NCCO)cc2Cl)CCN1C1CCN(C(C(=O)OC)c2ccc(Cl)cc2)CC1` (stereo partly shown) [compound 274] had an IC50 of 25 to 100 nM.

With `CCNC(=O)c1cnc(N2CCN(C3CCN(Cc4ccc(Cl)cc4F)CC3)C(CC(F)(F)F)C2)c(Cl)c1` (stereo not shown) [compound 275], the 50% inhibitory concentration (IC50) is 25 to 100 nM.

`COc1ccc(CN2CCC(N3CCN(c4ncc(C(=O)NCc5ccc(Cl)c(Cl)c5)cc4Br)CC3)CC2)cc1` [compound 276] yielded an IC50 of 25 to 100 nM.

The compound `N#Cc1ccc(CN2CCC(N3CCN(c4ncc(C(=O)NCc5ccc(F)c(F)c5)cc4Br)CC3)CC2)cc1` [compound 277] gave a concentration for half-maximal inhibition (IC50) of 25 to 100 nM.

`CNC(=O)c1cnc(N2CCN(C3CCN([C@H]4CCc5cc(Cl)ccc54)CC3)[C@@H](C)C2)c(Cl)c1` [compound 278]: the half-inhibitory concentration (IC50) lay in the range of 25 to 100 nM.

`O=C(NCc1ccc(Cl)c(Cl)c1)c1cnc(N2CCN(C3CCN(Cc4ccc(Cl)cc4)CC3)CC2)c(Br)c1` [compound 279] came in with an IC50 of 25 to 100 nM.

`COc1ccc(CN2CCC(N3CCN(c4ncc(C(=O)NCc5ccc(F)c(F)c5)cc4Br)CC3)CC2)cc1` [compound 280] displayed a half-maximal inhibitory concentration (IC50) of 25 to 100 nM.

`C[C@H]1CN(c2ncc(C(N)=O)cc2Cl)CCN1C1CCN(Cc2ccc(Cl)cc2)CC1` [compound 281] displayed an IC50 of 25 to 100 nM.

As for `C[C@@H]1CN(c2ncc(C(=O)NCc3ccc(Cl)c(Cl)c3)cc2Cl)CCN1C1CCN(Cc2ccc(C#N)cc2)CC1` [compound 282], the IC50 is 25 to 100 nM.

As for `O=C(NCCOc1ccccc1)c1cnc(N2CCN(C3CCN(Cc4ccc(Cl)cc4)CC3)CC2)c(Br)c1` [compound 283], the IC50 lay in the range of 25 to 100 nM.

`O=C(NCc1ccc(Cl)c(Cl)c1)c1cnc(N2CCN(C3CCN(Cc4ccc(Br)cc4)CC3)CC2)c(Br)c1` [compound 284] registered a half-maximal inhibitory concentration (IC50) of 25 to 100 nM.

On to `N#Cc1ccc(C(=O)N2CCC(N3CCN(c4ncc(C(=O)NCc5ccc(Cl)c(Cl)c5)cc4Br)CC3)CC2)cc1` [compound 285], for which the IC50 is 25 to 100 nM.

As for `O=C(NCc1ccc(Cl)c(Cl)c1)c1cnc(N2CCN(C3CCN(Cc4ccc(Cl)cc4)CC3)CC2)c(Cl)c1` [compound 286], the IC50 was 25 to 100 nM.

As for `CC[C@H]1CN(c2ncc(C(=O)NC(C)C)cc2Cl)CCN1C1CCN(C(=O)c2ccc(C#N)cc2)CC1` [compound 287], the half-maximal inhibitory concentration (IC50) is 25 to 100 nM.

Compound `O=C(NCc1ccc(Cl)cc1)c1cnc(N2CCN(C3CCN(Cc4ccc(Cl)cc4)CC3)CC2)c(Cl)c1` [compound 288] yielded a concentration for half-maximal inhibition (IC50) of 25 to 100 nM.

On to `O=C(NCc1ccc(Cl)c(Cl)c1)c1cnc(N2CCN(C3CCN(Cc4ccc(Br)cc4)CC3)CC2)c(Cl)c1` [compound 289], for which the half-inhibitory concentration (IC50) is 25 to 100 nM.

For the compound `O=C(NCCOc1ccccc1)c1cnc(N2CCN(C3CCN(Cc4ccc(Br)cc4)CC3)CC2)c(Br)c1` [compound 290], the 50% inhibitory concentration (IC50) fell in the range of 25 to 100 nM.

`C[C@H]1CN(c2ncc(C(=O)NCc3ccc(F)c(F)c3)cc2Cl)CCN1C1CCN(C(=O)c2ccc(C#N)cc2)CC1` [compound 291] had an IC50 of 25 to 100 nM.

Consider `CNC(=O)c1cnc(N2CCN(C3CCN(C(=N)c4ccc(Cl)cc4)CC3)[C@@H](C)C2)c(Cl)c1` [compound 292], for which the IC50 fell in the range of 25 to 100 nM.

Consider `O=C(NCc1ccc(Br)cc1)c1cnc(N2CCN(C3CCN(Cc4ccc(Cl)c(F)c4)CC3)CC2)c(Cl)c1` [compound 293], for which the IC50 lay within 25 to 100 nM.

The compound `CCNC(=O)c1cnc(N2CCN(C3CCN([C@@H](C)c4ccc(Cl)cc4)CC3)[C@@H](C)C2)c(Cl)c1` [compound 294] yielded an IC50 of 25 to 100 nM.

Turning to `CC[C@H]1CN(c2ncc(C(=O)NC)cc2Cl)CCN1C1CCN(Cc2ccccc2F)CC1` [compound 295], the concentration for half-maximal inhibition (IC50) fell in the range of 25 to 100 nM.

As to `O=C(NCc1cccc(F)c1)c1cnc(N2CCN(C3CCN(Cc4ccc(Cl)c(F)c4)CC3)CC2)c(Cl)c1` [compound 296], the IC50 was 25 to 100 nM.

Compound `O=C(NCc1ccc(F)cc1)c1cnc(N2CCN(C3CCN(Cc4ccc(Cl)cc4)CC3)CC2)c(Cl)c1` [compound 297] yielded an IC50 of 25 to 100 nM.

As to `N#Cc1ccc(C(=O)N2CCC(N3CCN(c4ncc(C(=O)NCc5ccc(F)c(F)c5)cc4Br)CC3)CC2)cc1` [compound 298], the IC50 lay in the range of 25 to 100 nM.

For the compound `CNC(=O)c1cnc(N2CCN(C3CCN(Cc4ccc(F)cc4Cl)CC3)[C@@H](C)C2)c(Cl)c1` [compound 299], the IC50 was 25 to 100 nM.

As for `C[C@@H]1CN(c2ncc(C(=O)NCC3CCCCC3)cc2Cl)CCN1C1CCN(Cc2ccc(C#N)cc2)CC1` [compound 300], the IC50 fell in the range of 25 to 100 nM.

The compound `CNC(=O)c1cnc(N2CCN(C3CCN(Cc4ccc(C(F)(F)F)cc4)CC3)[C@@H](C)C2)c(Cl)c1` [compound 301] showed a half-maximal inhibitory concentration (IC50) of 25 to 100 nM.

`CNC(=O)c1cnc(N2CCN(C3CCN(Cc4ccc(Cl)cc4)CC3C)CC2)c(Cl)c1` (stereo not shown) [compound 302] returned a half-inhibitory concentration (IC50) of 25 to 100 nM.

Take `CC[C@H]1CN(c2ncc(C(=O)NC)cc2Cl)CCN1C1CCN(C(=O)c2ccc(C#N)cc2)CC1` [compound 303]: the IC50 fell in the range of 25 to 100 nM.

Consider `COc1ccc(CN2CCC(N3CCN(c4ncc(C(=O)NCCOc5ccccc5)cc4Br)CC3)CC2)cc1` [compound 304], for which the 50% inhibitory concentration (IC50) was 25 to 100 nM.

In the case of `O=C(NCc1ccc(C(F)(F)F)cc1)c1cnc(N2CCN(C3CCN(Cc4ccc(Cl)cc4)CC3)CC2)c(Br)c1` [compound 305], the 50% inhibitory concentration (IC50) lay in the range of 25 to 100 nM.

For the compound `CC[C@H]1CN(c2ncc(C(=O)NCCN)cc2Cl)CCN1C1CCN(Cc2ccc(Cl)cc2F)CC1` [compound 306], the concentration for half-maximal inhibition (IC50) was in the range of 25 to 100 nM.

For the compound `C[C@H]1CN(c2ncc(C(=O)NCc3ccc(F)c(F)c3)cc2Cl)CCN1C1CCN(C(=O)c2ccc(Cl)cc2)CC1` [compound 307], the IC50 fell in the range of 25 to 100 nM.

In turn, `O=C(NCc1ccc(Br)cc1)c1cnc(N2CCN(C3CCN(Cc4ccc(Br)cc4)CC3)CC2)c(Cl)c1` [compound 308] came in with a concentration for half-maximal inhibition (IC50) of 25 to 100 nM.

With `CCNC(=O)c1cnc(N2CCN(C3CCN(C(=O)c4ccc(Cl)cc4)CC3)C(CC(F)(F)F)C2)c(Cl)c1` (stereo not shown) [compound 309], the IC50 is 25 to 100 nM.

For the compound `Cc1cc(NC(=O)c2cnc(N3CCN(C4CCN(Cc5ccc(Cl)cc5)CC4)[C@@H](C)C3)c(Cl)c2)no1` [compound 310], the half-maximal inhibitory concentration (IC50) is 25 to 100 nM.

`C[C@H]1CN(c2ncc(C(=O)NCc3ccc(F)c(F)c3)cc2Cl)CCN1C1CCN(CCOc2ccc(Cl)cc2)CC1` [compound 311] had an IC50 of 25 to 100 nM.

`C[C@H]1CN(c2ncc(C(=O)Nc3cc[nH]n3)cc2Cl)CCN1C1CCN(Cc2ccc(Cl)cc2)CC1` [compound 312]: the concentration for half-maximal inhibition (IC50) fell in the range of 25 to 100 nM.

As to `N#Cc1ccc(CN2CCC(N3CCN(c4ncc(C(=O)NCCOc5ccccc5)cc4Br)CC3)CC2)cc1` [compound 314], the IC50 fell in the range of 25 to 100 nM.

Compound `CC[C@H]1CN(c2cc(N)c(C(N)=O)cc2Cl)CCN1C1CCN(Cc2ccc(Cl)cc2F)CC1` [compound 315] displayed a concentration for half-maximal inhibition (IC50) of 25 to 100 nM.

In turn, `CC[C@H]1CN(c2ncc(C(=O)NC)c(N)c2Cl)CCN1C1CCN(Cc2ccc(Cl)cc2F)CC1` [compound 316] came in with an IC50 of 25 to 100 nM.

For the compound `N#Cc1ccc(CN2CCC(N3CCN(c4ncc(C(=O)NCc5ccc(Cl)c(Cl)c5)cc4Cl)CC3)CC2)cc1` [compound 317], the IC50 was in the range of 25 to 100 nM.

Compound `CC[C@H]1CN(c2ncc(C(=O)NC3CC3)cc2Cl)CCN1C1CCN(Cc2ccc(F)cc2C(F)(F)F)CC1` [compound 318] had an IC50 of 25 to 100 nM.

As for `C[C@H]1CN(c2ncc(C(=O)NCc3ccc(Cl)c(Cl)c3)cc2Cl)CCN1C1CCN(C(=O)c2ccc(C#N)cc2)CC1` [compound 319], the half-inhibitory concentration (IC50) fell in the range of 25 to 100 nM.

On to `CNC(=O)c1cnc(N2CCN(C3CCN(Cc4ccc(C)cc4)CC3)[C@@H](C)C2)c(Cl)c1` [compound 320], for which the half-inhibitory concentration (IC50) lay within 25 to 100 nM.

`N#Cc1ccc(CN2CCC(N3CCN(c4ncc(C(=O)NCc5ccc(F)cc5)cc4Cl)CC3)CC2)cc1` [compound 321] yielded a 50% inhibitory concentration (IC50) of 25 to 100 nM.

Compound `COc1ccc(CN2CCC(N3CCN(c4ncc(C(=O)NCc5ccc(C(F)(F)F)cc5)cc4Br)CC3)CC2)cc1` [compound 322] yielded a half-maximal inhibitory concentration (IC50) of 25 to 100 nM.

Compound `O=C(NCCOc1ccccc1)c1cnc(N2CCN(C3CCN(Cc4ccc(Cl)cc4)CC3)CC2)c(Cl)c1` [compound 323] displayed a half-maximal inhibitory concentration (IC50) of 25 to 100 nM.

Broadly, the IC50 is the concentration needed to halve the response being measured. A higher IC50 goes with a need for much substance.
